The subject of the first test is THP-1 cells. The test can be described thus: TNFα generation assay. Type of test: cell-based, human. The note with it: Homo sapiens, THP-1, 7 h, IFN-γ-differentiated THP-1 cells on human IgG-coated plate, cultured 7 hours; read-out: TNFα generation inhibitory activity (IC50). The protocol:
THP-1 cells (2×10^5 cells/ml), which were human monocytoid cells, were cultured in the presence of 10 ng/ml IFN-γ (Roche) for 2 days, so that the cells were induced to differentiate into macrophage-like cells. The differentiation-induced THP-1 cells were recovered, and the cells (1×10^6 cell/ml) were then allowed to react with a predetermined concentration of test compound at room temperature for 30 minutes. On the other hand, 100 μl of human IgG (10 μg/ml, SIGMA-ALDRICH) diluted with PBS was added to a 96-well plate, and it was then incubated at room temperature overnight. Thereafter, the resultant was washed with PBS twice to produce a human IgG-coated plate. Subsequently, a cell solution that contained a compound was inoculated on the human IgG-coated plate (5×10^4 cells/well), and it was then cultured for 7 hours. Thereafter, the cultured solution was recovered, and the amount of TNFα secreted into the culture solution was then measured by the ELISA method (Roche/R & D Systems) or the AlphaLISA method (PerkinElmer).
On to `NC(=O)c1cc(F)c(N[C@@H]2CCCC[C@@H]2N)nc1Nc1cncc(-c2ccccc2)c1` (relative stereo) [Example 2-1, 6-(cis-2-aminocyclohexylamino)-5-fluoro-2-((5-phenylpyridin-3-yl)amino)nicotinamide], for which the IC50 was not above 200 nM. `Cc1cccc(Nc2nc(N[C@@H]3CCCC[C@@H]3N)c(F)cc2C(N)=O)c1` (relative stereo) [Example 2-3, 6-(cis-2-aminocyclohexylamino)-5-fluoro-2-((3-methyl-phenyl)amino)nicotinamide]: the IC50 was not above 200 nM. On the same count and under the same terms, as for `NC(=O)c1cc(F)c(N[C@@H]2CCCC[C@@H]2N)nc1Nc1ccc(N2CCOCC2)cc1` (relative stereo) [Example 2-5, 6-(cis-2-aminocyclohexylamino)-5-fluoro-2-((4-(morpholin-4-yl)phenyl)amino)nicotinamide], the figure is not above 200 nM; as for `COc1cc(Nc2nc(N[C@@H]3CCCC[C@@H]3N)c(F)cc2C(N)=O)cc(OC)c1OC` (relative stereo) [Example 2-7, 6-(cis-2-aminocyclohexylamino)-5-fluoro-2-((3,4,5-trimethoxy-phenyl)amino)nicotinamide], not above 200 nM.

In a further test the target is T1, glutathione S-transferase (GST)-fused full-length human Syk protein (Homo sapiens, UniProt P43405).
T1 construct: (GST)-fused full-length human Syk protein; GST (glutathione S-transferase); purchased Carna Biosciences
The test can be described thus: Syk enzyme assay. Type of test: biochemical. The settings on record: Syk enzyme assay, Test Example 1; read-out: IC50 of Syk-inhibitory activity. Put shortly: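 IC50 values come from a time-resolved FRET readout (615 and 665 nm) of substrate phosphorylation, measured after an EDTA stop and 1 h antibody binding. The kinase reaction ran 40 min at room temperature with 27 μM ATP and 0.4 μM biotin-peptide, following a 15 min compound preincubation with baculovirus-made GST-full-length human Syk.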
`NC(=O)c1cc(F)c(NC2CCCCC2N)nc1Nc1cncc(NC(=O)c2ccncc2)c1` (centres unmarked) [Example 027-022]: the IC50 lay in the range of 10 to 50 nM. Regarding `Cc1ccccc1C(=O)Nc1cncc(Nc2nc(NC3CCCCC3N)c(F)cc2C(N)=O)c1` (centres unmarked) [Example 027-023], the IC50 fell in the range of 50 to 100 nM.

`COc1ccccc1C(=O)Nc1cncc(Nc2nc(NC3CCCCC3N)c(F)cc2C(N)=O)c1` (centres unmarked) [Example 027-024]: the IC50 fell in the range of 10 to 50 nM. As for `CCOc1ccccc1C(=O)Nc1cncc(Nc2nc(NC3CCCCC3N)c(F)cc2C(N)=O)c1` (centres unmarked) [Example 027-025], the IC50 is 10 to 50 nM. As for `NC(=O)c1cc(F)c(NC2CCCCC2N)nc1Nc1cncc(NC(=O)c2ccccc2OC(F)(F)F)c1` (centres unmarked) [Example 027-026], the IC50 was 50 to 100 nM. The same measure, in the same setting: as for `NC(=O)c1cc(F)c(NC2CCCCC2N)nc1Nc1cncc(NC(=O)c2cccc(F)c2)c1` (centres unmarked) [Example 027-027], the figure is 10 to 50 nM; as for `COc1cccc(C(=O)Nc2cncc(Nc3nc(NC4CCCCC4N)c(F)cc3C(N)=O)c2)c1` (centres unmarked) [Example 027-028], 10 to 50 nM; as for `NC(=O)c1cc(F)c(NC2CCCCC2N)nc1Nc1cncc(NC(=O)c2ccc(F)cc2F)c1` (centres unmarked) [Example 027-029], 10 to 50 nM. On to `NC(=O)c1cc(F)c(NC2CCCCC2N)nc1Nc1cncc(NC(=O)c2cccs2)c1` (centres unmarked) [Example 027-031], for which the IC50 is less than 10 nM. As to `NC(=O)c1cc(F)c(NC2CCCCC2N)nc1Nc1cncc(NC(=O)c2ccsc2)c1` (centres unmarked) [Example 027-032], the IC50 was less than 10 nM. For `NC(=O)c1cc(F)c(NC2CCCCC2N)nc1Nc1cncc(NC(=O)c2ccc3c(c2)OCO3)c1` (centres unmarked) [Example 027-034], the IC50 fell in the range of 10 to 50 nM. As for `NC(=O)c1cc(F)c(NC2CCCCC2N)nc1Nc1cncc(NC(=O)c2ccc3c(c2)OCCO3)c1` (centres unmarked) [Example 027-035], the IC50 fell in the range of 10 to 50 nM. On to `NC(=O)c1cc(F)c(NC2CCCCC2N)nc1Nc1cncc(NC(=O)c2ccc3occc3c2)c1` (centres unmarked) [Example 027-037], for which the IC50 lay within 10 to 50 nM. `NC(=O)c1cc(F)c(NC2CCCCC2N)nc1Nc1cncc(NC(=O)c2ccc3sccc3c2)c1` (centres unmarked) [Example 027-038]: the IC50 lay in the range of 10 to 50 nM. Turning to `NC(=O)c1cc(F)c(NC2CCCCC2N)nc1Nc1cncc(NC(=O)c2csc3ccccc23)c1` (centres unmarked) [Example 027-039], the IC50 lay in the range of 10 to 50 nM.

`NC(=O)c1cc(F)c(NC2CCCCC2N)nc1Nc1cncc(NC(=O)c2cc3ccccc3s2)c1` (centres unmarked) [Example 027-040]: the IC50 was 10 to 50 nM.

On to `NC(=O)c1cc(F)c(NC2CCCCC2N)nc1Nc1cncc(NC(=O)c2cc3ccccc3o2)c1` (centres unmarked) [Example 027-041], for which the IC50 was less than 10 nM.

For `CN(C)C(=O)Cn1ccc2c(Nc3nc(N[C@@H]4CCCC[C@@H]4N)c(F)cc3C(N)=O)ccnc21` [Example 029-004], the IC50 is less than 10 nM.

With `NC(=O)c1cc(F)c(NC2CCCC[C@@H]2N)nc1Nc1ccnc2c1ccn2CC(=O)N1CCCCC1` (some centres unmarked) [Example 029-005], the IC50 was less than 10 nM.

Regarding `NC(=O)c1cc(F)c(NC2CCCC[C@@H]2N)nc1Nc1ccnc2c1ccn2CC(=O)N1CCOCC1` (some centres unmarked) [Example 029-006], the IC50 is less than 10 nM. Regarding `CNC(=O)c1cc2c(Nc3nc(NC4CCCCC4N)c(F)cc3C(N)=O)ccnc2n1C` (centres unmarked) [Example 029-008], the IC50 was in the range of 10 to 50 nM. Take `CN(C)C(=O)c1cc2c(Nc3nc(N[C@@H]4CCCC[C@@H]4N)c(F)cc3C(N)=O)ccnc2n1C` [Example 029-009]: the IC50 fell in the range of 100 to 1000 nM.

Take `Cn1c(C(=O)N2CCOCC2)cc2c(Nc3nc(NC4CCCC[C@@H]4N)c(F)cc3C(N)=O)ccnc21` (some centres unmarked) [Example 029-010]: the IC50 is 100 to 1000 nM.

As for `Cn1c(C(=O)NCCN2CCOCC2)cc2c(Nc3nc(N[C@@H]4CCCC[C@@H]4N)c(F)cc3C(N)=O)ccnc21` [Example 029-011], the IC50 was in the range of 100 to 1000 nM.

Consider `NC(=O)c1cc(Nc2nc(N[C@@H]3CCCC[C@@H]3N)c(F)cc2C(N)=O)ccn1` [Example 029-012], for which the IC50 is less than 10 nM.

For `CNC(=O)c1cc(Nc2nc(NC3CCCC[C@@H]3N)c(F)cc2C(N)=O)ccn1` (some centres unmarked) [Example 029-013], the IC50 was 10 to 50 nM.

For `CN(C)C(=O)c1cc(Nc2nc(NC3CCCC[C@@H]3N)c(F)cc2C(N)=O)ccn1` (some centres unmarked) [Example 029-014], the IC50 is 50 to 100 nM. Same read-out and setting: in the case of `NCCNc1nc(Nc2cccc(C(=O)N3CCCCC3)c2)c(C(N)=O)cc1F` [Example 031-002] it was 100 to 1000 nM; in that of `COc1cc(Nc2nc(NC(C)(C)C(N)=O)c(F)cc2C(N)=O)cc(OC)c1` [Example 033-002], 100 to 1000 nM; in that of `COc1cc(Nc2nc(NCCC(N)=O)c(F)cc2C(N)=O)cc(OC)c1` [Example 033-003], 100 to 1000 nM. Same read-out and setting: in the case of `COc1cc(Nc2nc(N[C@@H](C(N)=O)C(C)(C)C)c(F)cc2C(N)=O)cc(OC)c1` [Example 033-005] it was 100 to 1000 nM; in that of `COc1cc(Nc2nc(NC3CCCC3C(N)=O)c(F)cc2C(N)=O)cc(OC)c1` (centres unmarked) [Example 033-007], 100 to 1000 nM; in that of `Cc1cc(C)cc(Nc2nc(NCCN)c(Cl)cc2C(N)=O)c1` [Example 035-008], less than 10 nM.

Turning to `NC[C@@H](Nc1nc(Nc2ccc3ncccc3c2)c(C(N)=O)cc1F)c1ccccn1` [Example 39-5, (R)-6-((2-amino-1-(pyridin-2-yl)ethyl)amino)-5-fluoro-2-((quinolin-6-yl)amino)nicotinamide], the IC50 is 50 to 100 nM. Take `Cc1ccc(S(=O)(=O)Nc2cccc3cc(Nc4nc(NC5CCCC[C@@H]5N)c(F)cc4C(N)=O)cnc23)cc1` (stereo partly drawn) [Example 41-4, 6-(cis-2-aminocyclohexylamino)-5-fluoro-2-((8-(4-methylphenylsulphonamide)quinolin-3-yl)amino)nicotinamide]: the IC50 was 50 to 100 nM.

Regarding `NC(=O)c1cc(F)c(NC2CCCC[C@@H]2N)nc1Nc1cnc2c(NS(=O)(=O)c3ccc(C(F)(F)F)cc3)cccc2c1` (stereo partly drawn) [Example 41-7, 6-(cis-2-aminocyclohexylamino)-5-fluoro-2-((8-(4-(trifluoromethyl)phenylsulphonamide)-quinolin-3-yl)amino)nicotinamide], the IC50 lay in the range of 100 to 1000 nM. Still for that read-out and setting: as for `NC(=O)c1cc(F)c(NC2CCCC[C@@H]2N)nc1Nc1cnc2c(NS(=O)(=O)Cc3ccccc3)cccc2c1` (stereo partly drawn) [Example 41-9, 6-(cis-2-aminocyclohexylamino)-5-fluoro-2-((8-(phenylmethylsulphonamide)quinolin-3-yl)amino)nicotinamide], the figure is 10 to 50 nM. Consider `Cc1cc(Nc2nc(N[C@H](CCCN)[C@H](C)N)c(F)cc2C(N)=O)cnc1C` [Example 045-000], for which the IC50 lay within 100 to 1000 nM. For the compound `Cc1cc(Nc2nc(N[C@H](CCCN(C)C)[C@H](C)N)c(F)cc2C(N)=O)cnc1C` [Example 046-000], the IC50 was 100 to 1000 nM.

The test is the same for the next values; noted with them: read-out: Syk-inhibitory activity (IC50).
For `NCCNc1nc(Nc2cccc(C(=O)Nc3ccccc3)c2)c(C(N)=O)cc1F` [Example 30, 6-(2-aminoethylamino)-2-(3-(anilinocarbonyl)phenylamino)-5-fluoronicotinamide], the IC50 is not above 1000 nM. As for `NCCNc1nc(Nc2cccc(C(=O)NC3CCCCC3)c2)c(C(N)=O)cc1F` [Example 31-3, 6-((2-aminoethyl)amino)-2-((3-(cyclohexylaminocarbonyl)phenyl)amino)-5-fluoronicotinamide], the IC50 was not above 1000 nM. Take `COc1cc(Nc2nc(NC(C(N)=O)C(C)C)c(F)cc2C(N)=O)cc(OC)c1` (centres unmarked) [Example 32, 6-(1-aminocarbonyl-2-methylpropylamino)-2-(3,5-dimethoxyphenylamino)-5-fluoro nicotinamide]: the IC50 is not above 1000 nM. Same read-out and setting: in the case of `COc1cc(Nc2nc(NC(C)C(N)=O)c(F)cc2C(N)=O)cc(OC)c1` (centres unmarked) [Example 33-1, 6-((2-amino-1-methyl-2-oxoethyl)amino)-2-(3,5-dimethoxyphenylamino)-5-fluoronicotinamide] it was not above 1000 nM.

The record behind these values is patent publication US8895585B2, “Nicotinamide derivative or salt thereof” (FUJIFILM Corporation, priority 2010, dated 2014).
